Measurements reported in patent publication US12496350B2 (Ohio State Innovation Foundation, priority 2018, dated 2025).
Read-outs that look alike come from different tables or passages of the source. Where a SMILES comes first, the peptide text is derived from it. Where no end group is shown, it is not given here. [ ]: non-standard residue; d: D form. The star is where a group is joined. X2 = O=C(O)c1cc(C(=O)*)ccc1-c1c2ccc(=O)cc-2oc2cc(O)ccc12; X1 = O=C(O)c1cc(NC(=S)*)ccc1C1c2ccc(O)cc2Oc2cc(O)ccc21; X3 = O=C(O)c1cc(C(=O)*)ccc1C1c2ccc(O)cc2Oc2cc(O)ccc21; 1Nal = N[C@@H](Cc1cccc2ccccc12)C(=O)O; 2Nal = N[C@@H](Cc1ccc2ccccc2c1)C(=O)O; Bta = N[C@@H](Cc1csc2ccccc12)C(=O)O; Pen = CC(C)(S)[C@H](N)C(=O)O; Tle = CC(C)(C)[C@H](N)C(=O)O; AEEA = NCCOCCOCC(=O)O

What was measured:
[1] = target: T1, CAL PDZ domain (CALP5-His) (Homo sapiens, UniProt Q9HD26); assay: Direct fluorescence polarization binding of labeled peptide, Condition C
T1 construct: His
Procedure: Condition C (denoted with superscript ^C): 50 nM labeled peptide was incubated with 2 mM TCEP in PBS at pH 7.4 containing 0.01% Triton-X100. CALP5-His was serially diluted in PBS containing 0.01% Triton-X100 to which was then added the peptide and TCEP solution. This solution was mixed for 1 h at RT then 20 uL was pipetted into 384-well microplates and fluorescence polarization was measured using a TECAN Infinite M1000 plate reader. KD values were calculated using KaleidaGraph v. 3.6 using the equation: […]
Binding Affinity and Selectivity. The potency and selectivity of inhibitor 29 was first assessed by comparing its binding affinity to the four PDZ domains of CAL, NHERF1, and NHERF2, which are involved in the trafficking of CFTR to and from the plasma membrane. Peptides were labeled with FITC at the N-terminus through a miniPEG linker and tested for binding to various PDZ domains by fluorescence polarization (FP). FITC-labeled peptide (50 nM) was incubated with varying concentrations of PDZ domain in PBS (pH 7.4) containing 0.01% Triton X-100 and 2 mM TCEP for 1 h at room temperature. After 1 h, 20 μL of each sample was pipetted into 384-well black-on-black microplates and fluorescence polarization was measured by using a TECAN Infinite M1000 plate reader. Data was processed using GraphPad PRISM ver. 8.0.

CAL PDZ binding domain = CAL PDZ binding domain (Homo sapiens, UniProt Q9HD26); settings: CAL PDZ binding sequences not conjugated to a cCPP; cited from earlier work
[2] = target: T1, CAL PDZ domain (CALP5-His); assay: FP-based competition assay, Condition B (probe FAM-[…]-OH); assay type: binding; settings: for effect of substitution at P-5 on binding: Trp replaced with 1- or 2-naphthylalanine
Procedure: Serial dilutions of each competitor peptide were prepared in PBS and the incubation solution was added to each. The combined solutions were gently mixed for 1 h at RT after which 20 uL sample was pipetted into 384-well black-on-black microplates and fluorescence polarization was measured using a TECAN Infinite M1000 plate reader. Data was processed to determine IC50 using GraphPad PRISM ver. 6.0.

[3] = FITC-labeled peptide, FP, read-out: Affinity (KD)
[4] = Condition C (superscript c): 50 nM labeled peptide, 2 mM TCEP, read-out: KD (printed in the IC50 (nM) column)

Compound	Ki (CAL PDZ binding domain)	also measured
CC(=O)N[C@@H](CS)C(=O)N[C@H](CCCNC(=N)N)C(=O)N[C@@H](CCCNC(=N)N)C(=O)N[C@@H](CCCNC(=N)N)C(=O)N[C@@H](Cc1ccc2ccccc2c1)C(=O)N[C@@H](Cc1c[nH]c2ccccc12)C(=O)N1CCC[C@H]1C(=O)N[C@H](C(=O)N[C@H](C(=O)N[C@@H](CCCNC(=N)N)C(=O)N[C@H](C(=O)O)C(C)(C)C)[C@@H](C)O)C(C)(C)S [Compound 27, Ac-Cys-(D-Arg)-Arg-Arg-Nal-Trp-Pro-Pen-Thr-Arg-Tle-OH] (Ac-C[dR]RR[2Nal]WP[Pen]TR[Tle]-OH)		Kd [1, 3]: 179 nM
C[C@@H](O)[C@H](NC(=O)[C@@H](NC(=O)[C@@H]1CCCN1C(=O)[C@H](Cc1c[nH]c2ccccc12)NC(=O)[C@H](Cc1ccc2ccccc2c1)NC(=O)[C@H](CCCNC(=N)N)NC(=O)[C@H](CCCNC(=N)N)NC(=O)[C@@H](CCCNC(=N)N)NC(=O)[C@H](CS)NC(=O)COCCOCCNC(=S)Nc1ccc(C2c3ccc(O)cc3Oc3cc(O)ccc32)c(C(=O)O)c1)C(C)(C)S)C(=O)N[C@@H](CCCNC(=N)N)C(=O)N[C@H](C(=O)O)C(C)(C)C [Compound 27-FITC, FITC-miniPEG-Cys-(D-Arg)-Arg-Arg-Nal-Trp-Pro-Pen-Thr-Arg-Tle-OH] ({X1-AEEA}-C[dR]RR[2Nal]WP[Pen]TR[Tle]-OH)		Kd [1, 3]: 179 ± 42 nM
WQFTKL [WQFTKL]	16 ± 1 µM	
WQKTRI [WQKTRI]	12 ± 0.9 µM	
CC(=O)N[C@@H](CS)C(=O)N[C@@H](CCCNC(=N)N)C(=O)N[C@@H](CCCNC(=N)N)C(=O)N[C@@H](CCCNC(=N)N)C(=O)N[C@@H](Cc1ccccc1)C(=O)N[C@@H](Cc1c[nH]c2ccccc12)C(=O)N[C@@H](CCC(N)=O)C(=O)N[C@H](C(=O)N[C@H](C(=O)N[C@@H](CCCNC(=N)N)C(=O)N[C@H](C(=O)O)C(C)(C)C)[C@@H](C)O)C(C)(C)S [Compound 16, Ac-Cys-Arg-Arg-Arg-Phe-Trp-Gln-Pen-Thr-Arg-Tle-OH]		improvement of CAL binding ([2]; Pen for cysteine at P-3): ~2 fold
WQRTRV [WQRTRV]	18 ± 1 µM	
C[C@@H](O)[C@H](NC(=O)[C@@H](NC(=O)[C@@H](NC(=O)[C@H](Cc1csc2ccccc12)NC(=O)[C@H](Cc1ccc2ccccc2c1)NC(=O)[C@H](CCCNC(=N)N)NC(=O)[C@H](CCCNC(=N)N)NC(=O)[C@@H](CCCNC(=N)N)NC(=O)[C@H](CS)NC(=O)COCCOCCNC(=O)c1ccc(-c2c3ccc(=O)cc-3oc3cc(O)ccc23)c(C(=O)O)c1)C(C)(C)S)C(C)(C)C)C(=O)N[C@@H](CCCNC(=N)N)C(=O)N[C@H](C(=O)O)C(C)(C)C [Compound 26, FAM-miniPEG-Cys-(D-Arg)-Arg-Arg-(2-Nal)-(Bta)-Pen-Tle-Thr-Arg-Tle-OH] ({X2-AEEA}-C[dR]RR[2Nal][Bta][Pen][Tle]TR[Tle]-OH)		specificity for CAL PDZ domain relative to other PDZ domains (e.g., NHERF PDZ domains) [1]: relatively low specificity; Kd [1, 4]: 49 ± 3 nM
CC(=O)N[C@@H](CS)C(=O)N[C@H](CCCNC(=N)N)C(=O)N[C@@H](CCCNC(=N)N)C(=O)N[C@@H](CCCNC(=N)N)C(=O)N[C@@H](Cc1ccc2ccccc2c1)C(=O)N[C@@H](Cc1csc2ccccc12)C(=O)N1CCC[C@H]1C(=O)N[C@H](C(=O)N[C@H](C(=O)N[C@@H](CCCNC(=N)N)C(=O)N[C@H](C(=O)O)C(C)(C)C)[C@@H](C)O)C(C)(C)S [Compound 28, Ac-Cys-(D-Arg)-Arg-Arg-Nal-Bta-Pro-Pen-Thr-Arg-Tle-OH] (Ac-C[dR]RR[2Nal][Bta]P[Pen]TR[Tle]-OH)		Kd [1, 3]: 87 nM
WQVTRV [WQVTRV]	2.3 ± 0.2 µM	
CC(=O)N[C@@H](CS)C(=O)N[C@@H](CCCNC(=N)N)C(=O)N[C@@H](CCCNC(=N)N)C(=O)N[C@@H](CCCNC(=N)N)C(=O)N[C@@H](Cc1ccccc1)C(=O)N[C@@H](Cc1c[nH]c2ccccc12)C(=O)N[C@@H](CCC(N)=O)C(=O)N[C@@H](CS)C(=O)N[C@H](C(=O)N[C@@H](CCCNC(=N)N)C(=O)N[C@@](C)(CC(C)C)C(=O)O)[C@@H](C)O [Compound 4]		IC50 ([2]; Condition B (superscript b): 100 nM probe FAM-[…]-OH, 500 nM CALP5-His, 5 mM DTT): > 20 µM
CC(=O)N[C@@H](CS)C(=O)N[C@@H](CCCNC(=N)N)C(=O)N[C@@H](CCCNC(=N)N)C(=O)N[C@@H](CCCNC(=N)N)C(=O)N[C@@H](Cc1ccccc1)C(=O)N[C@@H](Cc1ccc2ccccc2c1)C(=O)N[C@@H](CCC(N)=O)C(=O)N[C@@H](CS)C(=O)N[C@H](C(=O)N[C@@H](CCCNC(=N)N)C(=O)N[C@H](C(=O)O)C(C)(C)C)[C@@H](C)O [Compound 15, Ac-Cys-Arg-Arg-Arg-Phe-(2-Nal)-Gln-Cys-Thr-Arg-Tle-OH] (Ac-CRRRF[2Nal]QCTR[Tle]-OH)		effect of substitution at P-5 on binding [2]: did not significantly affect the binding
WQKTKL [WQKTKL]	17.8 ± 0.8 µM	
WQLTKL [WQLTKL]	17 ± 1 µM	
C[C@@H](O)[C@H](NC(=O)[C@@H](NC(=O)[C@@H]1CCCN1C(=O)[C@H](Cc1c[nH]c2ccccc12)NC(=O)[C@H](Cc1ccc2ccccc2c1)NC(=O)[C@H](CCCNC(=N)N)NC(=O)[C@H](CCCNC(=N)N)NC(=O)[C@H](CCCNC(=N)N)NC(=O)[C@H](CS)NC(=O)COCCOCCNC(=O)c1ccc(C2c3ccc(O)cc3Oc3cc(O)ccc32)c(C(=O)O)c1)C(C)(C)S)C(=O)N[C@@H](CCCNC(=N)N)C(=O)N[C@H](C(=O)O)C(C)(C)C [Compound 23, FAM-miniPEG-Cys-(D-Arg)-Arg-Arg-(2-Nal)-Trp-Pro-Pen-Thr-Arg-Tle-OH] ({X3-AEEA}-CRRR[2Nal]WP[Pen]TR[Tle]-OH)		Kd [1, 4]: 168 nM
WQKTRV [WQKTRV]	16 ± 2 µM	
WQFTRL [WQFTRL]	7.6 ± 0.7 µM	
CC(=O)N[C@@H](CS)C(=O)N[C@@H](CCCNC(=N)N)C(=O)N[C@@H](CCCNC(=N)N)C(=O)N[C@@H](CCCNC(=N)N)C(=O)N[C@@H](Cc1ccccc1)C(=O)N[C@@H](Cc1cccc2ccccc12)C(=O)N[C@@H](CCC(N)=O)C(=O)N[C@@H](CS)C(=O)N[C@H](C(=O)N[C@@H](CCCNC(=N)N)C(=O)N[C@H](C(=O)O)C(C)(C)C)[C@@H](C)O [Compound 14, Ac-Cys-Arg-Arg-Arg-Phe-(1-Nal)-Gln-Cys-Thr-Arg-Tle-OH] (Ac-CRRRF[1Nal]QCTR[Tle]-OH)		effect of substitution at P-5 on binding [2]: did not significantly affect the binding
WQRTRL [WQRTRL]	10.8 ± 0.7 µM	
WQRTRI [WQRTRI]	16 ± 2 µM	
WQKTRL [WQKTRL]	9 ± 0.6 µM	
C[C@@H](O)[C@H](NC(=O)[C@@H](NC(=O)[C@@H]1CCCN1C(=O)[C@H](Cc1csc2ccccc12)NC(=O)[C@H](Cc1ccc2ccccc2c1)NC(=O)[C@H](CCCNC(=N)N)NC(=O)[C@H](CCCNC(=N)N)NC(=O)[C@@H](CCCNC(=N)N)NC(=O)[C@H](CS)NC(=O)COCCOCCNC(=S)Nc1ccc(C2c3ccc(O)cc3Oc3cc(O)ccc32)c(C(=O)O)c1)C(C)(C)S)C(=O)N[C@@H](CCCNC(=N)N)C(=O)N[C@H](C(=O)O)C(C)(C)C [Compound 28-FITC, FITC-miniPEG-Cys-(D-Arg)-Arg-Arg-Nal-Bta-Pro-Pen-Thr-Arg-Tle-OH] ({X1-AEEA}-C[dR]RR[2Nal][Bta]P[Pen]TR[Tle]-OH)		Kd [1, 3]: 87 ± 14 nM
